The record followed here is patent US20090023714A1, “COMBINED PREPARATION OF A THIAZIDE DIURETIC AND A LOOP DIURETIC” (HEXAL AG, priority 2005, published 2009).

The subject of data set [1] is healthy volunteers. Nature of the data set: Dose-response studies of natriuretic effect in healthy volunteers. The conditions noted are these: for range of linear dose-responsiveness of natriuretic effect / dose at which the maximum natriuretic effect is reached: FIG. 1; for dose at which the maximum natriuretic effect is reached: net Na+ excretion for the duration of action, oral; for duration of action (time until baseline excretion is reached again): oral single dose. It is filed as in vivo, human. The method, then: (§1) The ethically approved trial was performed on 12 healthy volunteers (28-48years in age, 6 males, 6 females), who had given their written informed consent to the study. Prior to administration of a drug, the participants underwent a clinical check-up. The participants were kept on a standard diet, receiving a defined fluid (1.5 l/day) and salt intake (6 g NaCl; 100 mmol Na^+/day) three days before and throughout the study.
In accordance with earlier studies (35), urine was collected before the treatment period, i.e., from 24 hrs to 12 hrs and from 12 hrs to 0 hrs prior to oral drug administration (8 a.m.). From that point of time, urine was collected following drug administration in 2 hour intervals until the 6th hour and then from the 6th to 9th hour, from the 9th to 12th hour and from the 12th to […]. An aliquot of the defined volume of the respective collection period was frozen until analyzed for Na^+, K^+, Cl^−, Ca^2+ Mg^2+ and creatinine using a “MODULAR” Analyzer (Roche Comp., Switzerland).
(§2) All data are expressed as mean values (±SEM). The diuretic-induced “net excretion” is defined as the difference between total excretion and control excretion (“baseline”) obtained for the respective period prior to treatment. The effect of diuretic monotherapy is compared with the combined treatment using ANOVA.

Data set [2] concerns healthy volunteers. Nature of the data set: Diuretic effects on urinary excretion of Na+, K+, Mg2+ and Ca2+ in healthy volunteers (monotherapy and combinations). Format: in vivo, human. The conditions noted are these: for Na+ excretion during the first 3 hrs, monotherapy: 10 mg TORA, 25 mg HCT, 50 mg TA; for total K+ excretion, monotherapy: usual doses, 0-24 hrs and sub-periods, FIG. 2b. The method, then: as §1
From that point of time, urine was collected following drug administration in 2 hour intervals until the 6th hour and then from the 6th to 9th hour, from the 9th to 12th hour and from the 12th to […]. An aliquot of the defined volume of the respective collection period was frozen until analyzed for Na^+, K^+, Cl^−, Ca^2+ Mg^2+ and creatinine using a “MODULAR” Analyzer (Roche Comp., Switzerland).
as §2

“Also recorded” adds a separate entry of the source.

`NS(=O)(=O)c1cc2c(cc1Cl)NCNS2(=O)=O` [HCT, hydrochlorothiazide]: in the data set with healthy volunteers [1], the “range of linear dose-responsiveness of natriuretic effect” value (“range” below) is reported as “narrow range of almost linear dose-responsiveness”, the “dose at which the maximum natriuretic effect is reached” value turned out to be 25 mg and the “duration of action (time until baseline excretion is reached again)” value came to 12 h. In addition, in the data set with healthy volunteers [1] (during 12 hrs (time until baseline excretion is reached again)), the “cumulative Na+ excretion induced by 25 mg compared with 50 mg” value is given as “not significantly different”. Moreover, the “K+ excretion correlated with Na+ excretion (K+/Na+ ratio), 0-12 hrs” value in the data set on healthy volunteers [2] (0-12 hrs, HCT alone versus HCT with 5 mg TORA, p<0.01) is 0.40. Besides, in the data set with healthy volunteers [2] (0-24 hrs, HCT alone versus HCT with 5 mg TORA, p<0.01), the “K+ excretion correlated with Na+ excretion (K+/Na+ ratio), 0-24 hrs” value is 0.43. Further, the “Na+ excretion during the first 3 hrs, monotherapy” value with healthy volunteers [2] (FIG. 2a) is given as “higher Na^+ excretion than TA only during the first 3 hrs”. Besides, the “K+/Na+ excretion ratio within the first three hours, monotherapy” value in the data set on healthy volunteers [2] (FIG. 2c) is on record as “nearly triple of that of the loop diuretic”. Further, in the data set on healthy volunteers [2], the “total K+ excretion, monotherapy” value is “higher than that following administration of the loop diuretic”.
As for `Nc1nc(N)c2nc(-c3ccccc3)c(N)nc2n1` [TA, triamterene], in the data set on healthy volunteers [1], the “range” value is given as “narrow range of almost linear dose-responsiveness” and the “dose at which the maximum natriuretic effect is reached” value was found to be 50 mg. In addition, in the data set with healthy volunteers [2], the “total K+ excretion, monotherapy” value was “less K^+ loss than HCT or TORA only for the 0-3 hrs period; also recorded: not superior to the loop diuretic”.
Consider `Cc1cccc(Nc2ccncc2S(=O)(=O)NC(=O)NC(C)C)c1` [TORA, torasemide], for which, in the data set on healthy volunteers [1], the “range” value is “broader range of linear dose-responsiveness” and the “duration of action (time until baseline excretion is reached again)” value is 6 h. Moreover, the “Na+ excretion during the 6-12 hrs and 12-24 hrs periods (rebound)” value with healthy volunteers [2] (10 mg TORA monotherapy, FIG. 2a) is given as “dropped below levels prior to drug administration”. Also, the “Na+ excretion during the first 3 hrs, monotherapy” value in the data set on healthy volunteers [2] (FIG. 2a) was “by far in the highest increase of Na excretion”. For the same compound, the “K+/Na+ excretion ratio 6-24 hrs, monotherapy” value in the data set on healthy volunteers [2] (after the duration of action, Na+ excretion below baseline, FIG. 2c) was “highest only after the duration of action of the loop diuretic”. Moreover, the “Mg2+ excretion, monotherapy” value in the data set with healthy volunteers [2] (loop diuretic versus thiazide, FIG. 3) is “less magnesiuretic than the thiazide”. The “Ca2+ excretion in relation to Na+ excretion, monotherapy” value with healthy volunteers [2] (loop diuretic versus thiazide, FIG. 2d) is reported as “higher for the loop diuretic than for the thiazide”.
